Results reported in patent US10865216B2, “Tricyclic Gyrase inhibitors” (MERCK SHARP & DOHME CORP., priority 2012, dated 2020).
In brackets after ≈: the same amount, converted by molar mass.

Tested on: S. aureus ATCC 13709
Experiment: MIC, S. aureus ATCC 13709
Format: cell-based
Conditions: S. aureus; Alamar Blue read after overnight incubation at 35° C.

Row | SMILES | MIC Sa
1 | CNc1cc(F)cc2c1[nH]c1nc(Oc3ccc4c(c3)C(=O)NC4)nc(N3CC(N)C4(CC4)C3)c12 (stereo not drawn) [Compound 4.265] | ≤0.5 µg/mL
2 | CNc1cc(F)cc2c1[nH]c1nc(Oc3cncnc3)nc(N3CC4C(CN)C4C3)c12 (stereo not drawn) [Compound 4.004] | ≤0.5 µg/mL
3 | CNc1cc(F)cc2c1[nH]c1nc(Oc3cnc4ccoc4c3)nc(N3CC4CC(N)C4C3)c12 (stereo not drawn) [Compound 4.290] | ≤0.5 µg/mL
4 | CNc1cc(F)cc2c1[nH]c1nc(Oc3cnc(C)nc3)nc(N3CCC4(CCNC4)C3)c12 (stereo not drawn) [Compound 4.126] | ≤0.5 µg/mL
5 | CNc1cc(F)cc2c1[nH]c1nc(Oc3cnc(-c4nn[nH]n4)nc3)nc(N3CC[C@@H](N)C3)c12 [Compound 4.224] | 1 µg/mL (≈ 2.16 µM)
6 | CNc1cc(F)cc2c1[nH]c1nc(Oc3cnc(C)nc3)nc(N3CC4(CC(N)C4)C3)c12 [Compound 4.153] | ≤0.5 µg/mL
7 | CNc1cc(F)cc2c1[nH]c1nc(Oc3cnc4[nH]cnc4c3)nc(N3CC4CCNC4C3)c12 (stereo not drawn) [Compound 4.312] | 16 µg/mL (≈ 34.8 µM)
8 | CNc1cc(F)cc2c1[nH]c1nc(Oc3cncc(Cl)c3)nc(N3CC(N)C4(CC4)C3)c12 (stereo not drawn) [Compound 4.273] | ≤0.5 µg/mL
9 | CNc1cc(F)cc2c1[nH]c1nc(Oc3cnc(N4CC(O)C4)nc3)nc(N3CC4C(N)C4C3)c12 (stereo not drawn) [Compound 4.298] | ≤0.5 µg/mL
10 | CNc1cc(F)c(C)c2c1[nH]c1nc(Oc3cnc(C)nc3)nc(NCCCN)c12 [Compound 6.21] | >16 µg/mL
11 | CNc1cc(F)cc2c1[nH]c1nc(Oc3cnc(C)nc3)nc(N3CC(CN)C3)c12 [Compound 4.143] | ≤0.5 µg/mL
12 | CNc1cc(F)cc2c1[nH]c1nc(Oc3cnc(C)nc3)nc(N3CC4CCNC4C3)c12 (stereo not drawn) [Compound 4.156] | ≤0.5 µg/mL
13 | COc1cccc2c1[nH]c1nc(Oc3cccc(C#N)c3)nc(N3CC4C(N)C4C3)c12 (stereo not drawn) [Compound 2.15] | 1 µg/mL (≈ 2.42 µM)
14 | CNc1ncc(Oc2nc(N3CCC4(CC4N)C3)c3c(n2)[nH]c2c(NC)cc(F)cc23)cn1 (stereo not drawn) [Compound 4.220] | ≤0.5 µg/mL
15 | NC1CN(c2nc(Sc3cnc4nccnc4c3)nc3[nH]c4ccccc4c23)C1 [Compound 1.05] | >64 µg/mL
16 | CNc1cc(F)cc2c1[nH]c1nc(Oc3cnc(C4CC4)nc3)nc(N3CC4C(CN)C4C3)c12 (stereo not drawn) [Compound 4.249] | ≤0.5 µg/mL
17 | CNc1cc(F)cc2c1[nH]c1nc(Sc3cnc4ccc[n+]([O-])c4c3)nc(N3CCC4(CC4N)C3)c12 (stereo not drawn) [Compound 1.65] | ≤0.5 µg/mL
18 | CNc1cc(F)cc2c1[nH]c1nc(Oc3cnc(N)nc3)nc(N3CC4CCC(N)C4C3)c12 (stereo not drawn) [Compound 4.189] | ≤0.5 µg/mL

Same assay, conditions: Staphylococcus aureus, ATCC13709, S. aureus; Alamar Blue read after overnight incubation at 35° C.; read-out: MIC Sa

Row | SMILES | MIC
19 | CNc1cccc2c1[nH]c1nc(Oc3cncnc3)cc(N3CCC4(CC4N)C3)c12 (stereo not drawn) [Compound 3.41] | ≤ 0.5 µg/mL
20 | CNc1cc(F)cc2c1[nH]c1nc(Oc3cnc(C)nc3)nc(-c3cc(CN)ccc3F)c12 [Compound 4.446] | 2 µg/mL (≈ 4.47 µM)
21 | CNc1cccc2c1[nH]c1nc(Oc3cnc4c(c3)ncn4C)cc(N3CC4C(N)C4C3)c12 (stereo not drawn) [Compound 3.36] | ≤ 0.5 µg/mL

Tested on: E. coli ATCC 25922
Experiment: MIC, E. coli ATCC 25922
Format: cell-based
Conditions: E. coli; Alamar Blue read after overnight incubation at 35° C.

Row | SMILES | MIC Ec
22 | CNc1cc(F)cc2c1[nH]c1nc(Oc3ccc4c(c3)C(=O)NC4)nc(N3CC(N)C4(CC4)C3)c12 (stereo not drawn) [Compound 4.265] | 4 µg/mL (≈ 8.45 µM)
23 | CNc1cc(F)cc2c1[nH]c1nc(Oc3cncnc3)nc(N3CC4C(CN)C4C3)c12 (stereo not drawn) [Compound 4.004] | 2 µg/mL (≈ 4.76 µM)
24 | CNc1cc(F)cc2c1[nH]c1nc(Oc3cnc4ccoc4c3)nc(N3CC4CC(N)C4C3)c12 (stereo not drawn) [Compound 4.290] | ≤0.5 µg/mL
25 | CNc1cc(F)cc2c1[nH]c1nc(Oc3cnc(C)nc3)nc(N3CCC4(CCNC4)C3)c12 (stereo not drawn) [Compound 4.126] | 2 µg/mL (≈ 4.46 µM)
26 | CNc1cc(F)cc2c1[nH]c1nc(Oc3cnc(-c4nn[nH]n4)nc3)nc(N3CC[C@@H](N)C3)c12 [Compound 4.224] | >16 µg/mL
27 | CNc1cc(F)cc2c1[nH]c1nc(Oc3cnc(C)nc3)nc(N3CC4(CC(N)C4)C3)c12 [Compound 4.153] | 2 µg/mL (≈ 4.6 µM)
28 | CNc1cc(F)cc2c1[nH]c1nc(Oc3cnc4[nH]cnc4c3)nc(N3CC4CCNC4C3)c12 (stereo not drawn) [Compound 4.312] | >16 µg/mL
29 | CNc1cc(F)cc2c1[nH]c1nc(Oc3cncc(Cl)c3)nc(N3CC(N)C4(CC4)C3)c12 (stereo not drawn) [Compound 4.273] | 2 µg/mL (≈ 4.41 µM)
30 | CNc1cc(F)cc2c1[nH]c1nc(Oc3cnc(N4CC(O)C4)nc3)nc(N3CC4C(N)C4C3)c12 (stereo not drawn) [Compound 4.298] | 2 µg/mL (≈ 4.19 µM)
31 | CNc1cc(F)c(C)c2c1[nH]c1nc(Oc3cnc(C)nc3)nc(NCCCN)c12 [Compound 6.21] | >16 µg/mL
32 | CNc1cc(F)cc2c1[nH]c1nc(Oc3cnc(C)nc3)nc(N3CC(CN)C3)c12 [Compound 4.143] | 2 µg/mL (≈ 4.9 µM)
33 | CNc1cc(F)cc2c1[nH]c1nc(Oc3cnc(C)nc3)nc(N3CC4CCNC4C3)c12 (stereo not drawn) [Compound 4.156] | ≤0.5 µg/mL
34 | COc1cccc2c1[nH]c1nc(Oc3cccc(C#N)c3)nc(N3CC4C(N)C4C3)c12 (stereo not drawn) [Compound 2.15] | >32 µg/mL
35 | CNc1ncc(Oc2nc(N3CCC4(CC4N)C3)c3c(n2)[nH]c2c(NC)cc(F)cc23)cn1 (stereo not drawn) [Compound 4.220] | ≤0.5 µg/mL
36 | NC1CN(c2nc(Sc3cnc4nccnc4c3)nc3[nH]c4ccccc4c23)C1 [Compound 1.05] | >64 µg/mL
37 | CNc1cc(F)cc2c1[nH]c1nc(Oc3cnc(C4CC4)nc3)nc(N3CC4C(CN)C4C3)c12 (stereo not drawn) [Compound 4.249] | ≤0.5 µg/mL
38 | CNc1cc(F)cc2c1[nH]c1nc(Sc3cnc4ccc[n+]([O-])c4c3)nc(N3CCC4(CC4N)C3)c12 (stereo not drawn) [Compound 1.65] | ≤0.5 µg/mL
39 | CNc1cc(F)cc2c1[nH]c1nc(Oc3cnc(N)nc3)nc(N3CC4CCC(N)C4C3)c12 (stereo not drawn) [Compound 4.189] | 2 µg/mL (≈ 4.45 µM)

Same assay, conditions: Escherichia coli, ATCC25922, E. coli; Alamar Blue read after overnight incubation at 35° C.; read-out: MIC Ec

Row | SMILES | MIC
40 | CNc1cccc2c1[nH]c1nc(Oc3cncnc3)cc(N3CCC4(CC4N)C3)c12 (stereo not drawn) [Compound 3.41] | ≤ 0.5 µg/mL
41 | CNc1cc(F)cc2c1[nH]c1nc(Oc3cnc(C)nc3)nc(-c3cc(CN)ccc3F)c12 [Compound 4.446] | 8 µg/mL (≈ 17.9 µM)
42 | CNc1cccc2c1[nH]c1nc(Oc3cnc4c(c3)ncn4C)cc(N3CC4C(N)C4C3)c12 (stereo not drawn) [Compound 3.36] | 2 µg/mL (≈ 4.54 µM)
